# According to patent EP4759810A1, “PROTAC TARGETING BCL-XL PROTEIN AND USE THEREOF” (BEIJING SUNCELL BIO-MEDICAL CO., LTD., priority 2023, dated 2025):
# Read-outs that look alike come from different tables or passages of the source.
# Assays:
# Molt-4 cells = assay: Molt-4 cell killing activity test (CCK-8); type: cell-based; settings: for activity for killing Molt-4 cells, in words: comparison with C1, the targeting ligand or control molecules; for killing Molt-4 cells at different concentrations (Figure 1), in words: 0.001-3 µM, comparison with control molecules
# Description: Molt-4 cells were cultured and amplified in 10 cm dishes by using RPMI-1640 medium supplemented with 10% fetal bovine serum. Actively growing and healthy Molt-4 cells were collected, centrifuged at 1000 rpm for 5 minutes, and after removing the supernatant, the cells were resuspended in fresh RPMI-1640 medium containing 10% fetal bovine serum. Cell counting was then performed. The cell density was adjusted to 120,000 cells per milliliter, and 100 µL of the cell suspension was added to each well of a 96-well transparent cell culture plate. It was noted that the edge wells of the 96-well plate were not used for testing; and 300 µL of PBS alone was added to these wells to reduce medium evaporation.
# The small molecule compounds to be tested for activity were prepared. A series of small molecule concentration gradients (0.001, 0.003, 0.01, 0.03, 0.1, 0.3, 1, and 3 µM) were pre-set, and a series of 2× drug dilutions for the above concentrations were prepared in RPMI-1640 medium containing 10% fetal bovine serum. 100 µL of the above medium containing the gradient concentrations of the drug was added to each well of a 96-well plate pre-seeded with cells, so that the final drug concentration in each well was the pre-set concentration gradient. Three replicate wells were used for each tested drug concentration. The 96-well plate was placed back in a 37°C incubator, and the cell viability was measured after three days.
# The plate was taken out three days after adding the drugs, and 100 µL of pre-prepared CCK-8 working solution was added to each well. The CCK-8 working solution was obtained through diluting a CCK-8 stock solution (C0041, Beyotime) by 10-fold volumn with a serum-free RPMI-1640 medium. The 96-well plates with the added CCK-8 working solution were placed back in the 37°C incubator and incubated for 0.5-2 hours. The plates were then taken out, and the absorbance value (OD value) of each well was measured at a wavelength of 450 nm, and the cell viability in each experimental group was calculated according to the following formula: Relative cell viability (%) = […] × 100%.
# [1] = Metabolic stability assay in liver microsomes (human); type: in vitro ADME; settings: human liver microsomes 0.5 mg/mL; 1 µM compound; 37°C
# Description: (§1) The metabolic reaction of compounds in liver microsome was performed in a system with a total volume of 400 µL, and the following steps below were sequentially performed for the reaction and detection: 1) 200 µL of phosphate buffer (200 mM), 106 µL of sterile ultrapure water, and 40 µL of magnesium chloride solution (50 mM) were added to each detection tube to prepare a reaction working solution. 2) Two reaction systems with or without adding NADPH were prepared for each compound to be tested. For the reaction system with adding NADPH: 10 µL of liver microsomes (20 mg/mL) and 40 µL of NADPH (10 mM) were added to the above working solution; for the reaction system without adding NADPH: 10 µL of liver microsomes (20 mg/mL) and 40 µL of sterile ultrapure water were added to the above working solution. The final concentration of liver microsomes in both reaction systems was 0.5 mg/mL. 3) 4 µL of the compound to be tested ([…]) was added to each reaction tube, resulting in a final concentration of 1 µM for the compound in the reaction system. The detection tubes were placed at 37°C for reaction. 4) 50 µL samples were taken from each detection tube at 0, 15, 30, 45, and 60 minutes after adding the compound. The reaction was terminated by adding cold acetonitrile containing IS (100 nM alprazolam, 200 nM labetalol, 200 nM caffeine, and 2 µM ketoprofen) in a 4× volume. The samples were centrifuged at 3220 g for 40 minutes, 100 µL of the supernatant was mixed with 100 µL of ultrapure water, and a sample was taken for LC-MS/MS analysis.
# (§2) Calculation of in vitro liver microsomal metabolic half-life and in vitro metabolic intrinsic clearance rate: The LC-MS detection results were analyzed to obtain the percentage of the remaining amount of the tested compound relative to the initial amount at each time point. The natural logarithm of the remaining percentage was linearly fitted against the incubation time.
# [2] = Metabolic stability assay in liver microsomes (mouse); type: in vitro ADME; settings: mouse liver microsomes 0.5 mg/mL; 1 µM compound; 37°C
# Description: as §1, §2
# [3] = Homo sapiens, 72 h, Molt-4 cells, three days, CCK-8, read-out: EC50 (Molt-4)
# [4] = Homo sapiens, Bcl-xL-positive Molt-4 cells, read-out: cellular activity / killing activity (Molt-4 cells)
SMILES,EC50 (Molt-4 cells; [3]) [nM],"activity for killing Molt-4 cells, in words (Molt-4 cells)",also measured
O=C1CCC(N2C(=O)c3cccc(NCCOCCOCCOCCOCCNC(=O)c4nc(N5CCc6cccc(C(=O)Nc7nc8ccccc8s7)c6C5)ccc4CCCOc4ccc(C#CCN5CCNCC5)cc4F)c3C2=O)C(=O)N1 (centres unmarked) [AF4],> 1000,lower killing activity or loss the function,–
Cc1c(-c2ccc(N3CCc4cccc(C(=O)Nc5nc6ccccc6s5)c4C3)nc2C(=O)NCCOCCOCCNc2cccc3c2C(=O)N(C2CCC(=O)NC2=O)C3=O)cnn1CC12CC3CC(CC(C3)C1)C2 (centres unmarked) [APF2],< 10,good cellular activity similar to those of the targeting ligand per se,–
Cc1c(-c2ccc(N3CCc4cccc(C(=O)Nc5nc6ccccc6s5)c4C3)nc2C(=O)NCCOCCOCCOCCNc2cccc3c2C(=O)N(C2CCC(=O)NC2=O)C3=O)cnn1CC12CC3CC(CC(C3)C1)C2 (centres unmarked) [APF3],< 10,good cellular activity similar to those of the targeting ligand per se,–
Cc1c(-c2ccc(N3CCc4cccc(C(=O)Nc5nc6ccccc6s5)c4C3)nc2C(=O)NCCOCCOCCOCCOCCNc2cccc3c2C(=O)N(C2CCC(=O)NC2=O)C3=O)cnn1CC12CC3CC(CC(C3)C1)C2 (centres unmarked) [APF4],< 10,good cellular activity similar to those of the targeting ligand per se,–
CN[C@@H](C)C(=O)N[C@H](C(=O)N1CCC[C@H]1c1nc(C(=O)c2cccc(OCCN3CCC(CN4CCN(CC#Cc5ccc(OCCCc6ccc(N7CCc8cccc(C(=O)Nc9nc%10ccccc%10s9)c8C7)nc6C(=O)O)c(F)c5)CC4)CC3)c2)cs1)C1CCCCC1 [APL-1],10 to 100,–,–
Cc1ncsc1-c1ccc([C@H](C)NC(=O)[C@@H]2C[C@@H](O)CN2C(=O)[C@@H](NC(=O)CCN2CCC(CN3CCN(CC#Cc4ccc(OCCCc5ccc(N6CCc7cccc(C(=O)Nc8nc9ccccc9s8)c7C6)nc5C(=O)O)c(F)c4)CC3)CC2)C(C)(C)C)cc1 [APQ3],10 to 100,–,–
O=C1CCN(c2ccc(N3CCN(C(=O)CCN4CCN(CC#Cc5ccc(OCCCc6ccc(N7CCc8cccc(C(=O)Nc9nc%10ccccc%10s9)c8C7)nc6C(=O)O)c(F)c5)CC4)CC3)cc2)C(=O)N1 [APQ5a],< 10,–,EC50 (Molt-4 cells; [4]): < 10 nM
O=C1CCN(c2ccc(N3CCN(C(=O)CCCN4CCN(CC#Cc5ccc(OCCCc6ccc(N7CCc8cccc(C(=O)Nc9nc%10ccccc%10s9)c8C7)nc6C(=O)O)c(F)c5)CC4)CC3)cc2)C(=O)N1 [APQ5b],10 to 100,–,–
O=C1CCN(c2ccc(N3CC(CN4CCN(CC#Cc5ccc(OCCCc6ccc(N7CCc8cccc(C(=O)Nc9nc%10ccccc%10s9)c8C7)nc6C(=O)O)c(F)c5)CC4)C3)cc2)C(=O)N1 [APQ6b],10 to 100,–,–
O=C1CCN(c2ccc(N3CCN(C4CCN(CC#Cc5ccc(OCCCc6ccc(N7CCc8cccc(C(=O)Nc9nc%10ccccc%10s9)c8C7)nc6C(=O)O)c(F)c5)CC4)CC3)cc2)C(=O)N1 [APQ7a],< 10,–,"killing Molt-4 cells at different concentrations (Figure 1), in words (Molt-4 cells): comparable to A-1331852; EC50 (Molt-4 cells; [4]): < 10 nM"
O=C1CCN(c2ccc(N3CCN(CC4CCN(CC#Cc5ccc(OCCCc6ccc(N7CCc8cccc(C(=O)Nc9nc%10ccccc%10s9)c8C7)nc6C(=O)O)c(F)c5)CC4)CC3)cc2)C(=O)N1 [APQ7b],10 to 100,–,–
O=C1CCN(c2ccc(OCCN3CCC(CN4CCN(CC#Cc5ccc(OCCCc6ccc(N7CCc8cccc(C(=O)Nc9nc%10ccccc%10s9)c8C7)nc6C(=O)O)c(F)c5)CC4)CC3)cc2)C(=O)N1 [APQ8],10 to 100,–,–
COC(=O)c1nc(N2CCc3cccc(C(=O)Nc4nc5ccccc5s4)c3C2)ccc1CCCOc1ccc(C#CCN2CCN(c3ccc(N4CCC(=O)NC4=O)cc3)CC2)cc1F [APQ9-1],> 1000,lower killing activity or loss the function,–
CC(C)(C)OC(=O)c1nc(N2CCc3cccc(C(=O)Nc4nc5ccccc5s4)c3C2)ccc1CCCOc1ccc(C#CCN2CCN(CC3CCN(c4ccc(N5CCC(=O)NC5=O)cc4)CC3)CC2)cc1F [APQ10-1],> 1000,lower killing activity or loss the function,–
O=C1CCC(n2nnc3ccc(NCCN4CCC(CN5CCN(CC#Cc6ccc(OCCCc7ccc(N8CCc9cccc(C(=O)Nc%10nc%11ccccc%11s%10)c9C8)nc7C(=O)O)c(F)c6)CC5)CC4)cc3c2=O)C(=O)N1 (centres unmarked) [APQ11],< 10,–,"killing Molt-4 cells at different concentrations (Figure 1), in words (Molt-4 cells): comparable to A-1331852; EC50 (Molt-4 cells; [4]): < 10 nM"
COc1cc(N2CCN(CC#Cc3ccc(OCCCc4ccc(N5CCc6cccc(C(=O)Nc7nc8ccccc8s7)c6C5)nc4C(=O)O)c(F)c3)CC2)ccc1N1CCC(=O)NC1=O [APQ902a],< 10,–,EC50 (Molt-4 cells; [4]): < 10 nM
Cc1c(-c2ccc(N3CCc4cccc(C(=O)Nc5nc6ccccc6s5)c4C3)nc2C(=O)NCCn2cc(COCCNc3cccc4c3C(=O)N(C3CCC(=O)NC3=O)C4=O)nn2)cnn1CC12CC3CC(CC(C3)C1)C2 (centres unmarked) [APR1],< 10,good cellular activity similar to those of the targeting ligand per se,–
Cc1c(-c2ccc(N3CCc4cccc(C(=O)Nc5nc6ccccc6s5)c4C3)nc2C(=O)NCCn2cc(COCCOCCNc3cccc4c3C(=O)N(C3CCC(=O)NC3=O)C4=O)nn2)cnn1CC12CC3CC(CC(C3)C1)C2 (centres unmarked) [APR2],< 10,good cellular activity similar to those of the targeting ligand per se,–
Cc1c(-c2ccc(N3CCc4cccc(C(=O)Nc5nc6ccccc6s5)c4C3)nc2C(=O)NCCn2cc(COCCOCCOCCNc3cccc4c3C(=O)N(C3CCC(=O)NC3=O)C4=O)nn2)cnn1CC12CC3CC(CC(C3)C1)C2 (centres unmarked) [APR3],< 10,good cellular activity similar to those of the targeting ligand per se,–
Cc1c(-c2ccc(N3CCc4cccc(C(=O)Nc5nc6ccccc6s5)c4C3)nc2C(=O)NCCn2cc(COCCOCCOCCOCCNc3cccc4c3C(=O)N(C3CCC(=O)NC3=O)C4=O)nn2)cnn1CC12CC3CC(CC(C3)C1)C2 (centres unmarked) [APR4],< 10,good cellular activity similar to those of the targeting ligand per se,–
[2H]C1([2H])Cc2cccc(C(=O)Nc3nc4ccccc4s3)c2CN1c1ccc(-c2cnn(CC34CC5CC(CC(C5)C3)C4)c2C)c(C(=O)NCCOCCOCCOCCNc2cccc3c2C(=O)N(C2CCC(=O)NC2=O)C3=O)n1 (centres unmarked) [Compound A13D6-PF3],< 10,good cellular activity similar to those of the targeting ligand per se,–
[2H]c1c([2H])c([2H])c2sc(NC(=O)c3cccc4c3CN(c3ccc(-c5cnn(CC67CC8CC(CC(C8)C6)C7)c5C)c(C(=O)O)n3)CC4)nc2c1[2H] [Compound A13D-1],–,–,Clint [1]: 235.82 µL/min/mg protein; T1/2 [1]: 5.88 min; Clint [2]: 266.89 µL/min/mg protein; T1/2 [2]: 5.19 min
[2H]C1([2H])c2c(C(=O)Nc3nc4ccccc4s3)cccc2C([2H])([2H])C([2H])([2H])N1c1ccc(-c2cnn(CC34CC5CC(CC(C5)C3)C4)c2C)c(C(=O)O)n1 [Compound A13D-2],–,–,Clint [1]: 55.31 µL/min/mg protein; T1/2 [1]: 25.06 min; Clint [2]: 18.15 µL/min/mg protein; T1/2 [2]: 76.36 min
"CN(C)CC#Cc1ccc(OCCCc2sc(N3CCc4cccc(C(=O)Nc5nc6ccccc6s5)c4C3)nc2C(=O)O)c(F)c1 [Compound A-1155463, reference compound]",–,–,"EC50 (Molt-4 cells; Molt-4 cells, three days, CCK-8, read-out: EC50 (Molt-4)): < 10 nM"
